Assay results taken from ChEMBL document CHEMBL1201862, “PubChem BioAssay data set” (2004).
One block for each molecule: values may come before it. Active and inactive are the calls of the source.

What was measured:
[1] = target: Ras and Rab interactor 1/Tyrosine-protein kinase ABL1 (Homo sapiens, UniProt P00519+Q13671); type: functional;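 also: biochemical TR-FRET dose-response test measuring inhibition of binding between Rin1 and Abl proteins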
[2] = target: T1, Caspase-3 (Homo sapiens, UniProt P42574); experiment: SAR Analysis of small molecule inhibitors of Sentrin-specific proteases (SENPs) using a Caspase-3 Selectivity assay. [Related pubchem assays (depositor defined):AID2540, AID2599, AID434973, AID489001]; type: functional
T1 sequence (P42574 whole entry): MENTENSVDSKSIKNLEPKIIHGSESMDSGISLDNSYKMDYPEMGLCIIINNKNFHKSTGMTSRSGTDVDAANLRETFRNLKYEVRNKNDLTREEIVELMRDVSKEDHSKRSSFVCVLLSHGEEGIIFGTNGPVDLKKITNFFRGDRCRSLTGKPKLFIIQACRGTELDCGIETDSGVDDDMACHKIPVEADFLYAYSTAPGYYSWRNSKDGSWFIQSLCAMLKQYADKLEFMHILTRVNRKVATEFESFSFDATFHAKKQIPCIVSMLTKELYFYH

[3] = target: T2, Sentrin-specific protease 7 (Homo sapiens, UniProt Q9BQF6); experiment: SENP7 protease inhibitors, SAR follow-up, biochemical, luminescence (AID 504497); type: functional
T2 sequence (Q9BQF6 whole entry): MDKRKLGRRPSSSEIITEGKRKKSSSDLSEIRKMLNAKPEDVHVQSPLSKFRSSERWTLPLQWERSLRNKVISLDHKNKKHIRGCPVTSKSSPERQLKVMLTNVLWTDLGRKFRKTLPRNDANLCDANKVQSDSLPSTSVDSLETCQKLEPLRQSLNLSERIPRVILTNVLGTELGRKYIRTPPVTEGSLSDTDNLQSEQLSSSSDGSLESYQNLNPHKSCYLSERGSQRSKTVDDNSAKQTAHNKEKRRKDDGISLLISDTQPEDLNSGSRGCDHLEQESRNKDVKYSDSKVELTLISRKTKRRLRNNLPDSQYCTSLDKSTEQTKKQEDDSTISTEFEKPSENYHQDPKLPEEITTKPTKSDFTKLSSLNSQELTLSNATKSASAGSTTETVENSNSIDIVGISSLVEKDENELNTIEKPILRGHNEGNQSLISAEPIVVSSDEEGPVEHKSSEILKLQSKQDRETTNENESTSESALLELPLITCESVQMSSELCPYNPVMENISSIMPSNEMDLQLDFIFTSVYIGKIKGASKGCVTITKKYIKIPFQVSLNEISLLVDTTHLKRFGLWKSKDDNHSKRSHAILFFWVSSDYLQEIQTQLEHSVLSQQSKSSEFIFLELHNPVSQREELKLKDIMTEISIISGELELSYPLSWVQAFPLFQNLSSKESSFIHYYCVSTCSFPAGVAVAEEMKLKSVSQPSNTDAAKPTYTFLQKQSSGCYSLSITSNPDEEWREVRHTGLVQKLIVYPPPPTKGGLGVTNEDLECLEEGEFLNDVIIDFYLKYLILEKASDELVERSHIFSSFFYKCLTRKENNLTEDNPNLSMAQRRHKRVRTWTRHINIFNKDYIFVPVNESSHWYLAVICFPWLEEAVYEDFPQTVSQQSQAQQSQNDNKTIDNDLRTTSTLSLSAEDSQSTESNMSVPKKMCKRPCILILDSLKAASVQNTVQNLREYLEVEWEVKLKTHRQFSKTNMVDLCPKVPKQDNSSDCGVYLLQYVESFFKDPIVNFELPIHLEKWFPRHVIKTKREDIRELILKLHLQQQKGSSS

[4] = target: T3, Sentrin-specific protease 6 (Homo sapiens, UniProt Q9GZR1); experiment: SAR Analysis of small molecule inhibitors of Sentrin-specific protease 6 (SENP6) using a Luminescent assay. [Related pubchem assays (depositor defined):AID2582, AID2599]; type: functional
T3 sequence (Q9GZR1 whole entry): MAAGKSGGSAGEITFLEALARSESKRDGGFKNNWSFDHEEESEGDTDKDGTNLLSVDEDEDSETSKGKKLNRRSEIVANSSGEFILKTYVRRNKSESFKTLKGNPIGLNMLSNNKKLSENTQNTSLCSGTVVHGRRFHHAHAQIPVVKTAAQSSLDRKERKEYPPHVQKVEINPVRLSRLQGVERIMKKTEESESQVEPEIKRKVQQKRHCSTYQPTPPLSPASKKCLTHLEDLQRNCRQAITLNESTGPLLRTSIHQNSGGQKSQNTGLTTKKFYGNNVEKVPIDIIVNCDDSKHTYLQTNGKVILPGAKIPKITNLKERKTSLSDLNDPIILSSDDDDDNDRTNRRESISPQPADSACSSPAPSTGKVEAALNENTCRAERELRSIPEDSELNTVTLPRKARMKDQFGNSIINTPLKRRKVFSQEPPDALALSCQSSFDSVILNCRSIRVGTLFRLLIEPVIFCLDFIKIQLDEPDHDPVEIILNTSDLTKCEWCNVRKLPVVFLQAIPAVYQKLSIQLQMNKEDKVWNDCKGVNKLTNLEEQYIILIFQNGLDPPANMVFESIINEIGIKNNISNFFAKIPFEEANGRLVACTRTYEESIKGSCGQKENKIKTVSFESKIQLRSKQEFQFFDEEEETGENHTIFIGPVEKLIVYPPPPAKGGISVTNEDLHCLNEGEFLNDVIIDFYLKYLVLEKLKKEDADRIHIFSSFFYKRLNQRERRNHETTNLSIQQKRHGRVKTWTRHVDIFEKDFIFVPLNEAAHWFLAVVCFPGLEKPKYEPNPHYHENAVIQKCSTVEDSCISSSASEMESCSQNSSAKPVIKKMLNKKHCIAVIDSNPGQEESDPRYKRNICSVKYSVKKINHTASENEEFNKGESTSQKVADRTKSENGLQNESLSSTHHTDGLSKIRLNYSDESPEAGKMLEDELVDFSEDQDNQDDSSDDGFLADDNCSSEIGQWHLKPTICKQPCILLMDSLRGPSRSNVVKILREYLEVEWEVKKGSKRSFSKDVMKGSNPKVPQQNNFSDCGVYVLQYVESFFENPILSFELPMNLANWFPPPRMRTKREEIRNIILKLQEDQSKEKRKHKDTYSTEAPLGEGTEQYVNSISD

[5] = target: T4, Sentrin-specific protease 8 (Homo sapiens, UniProt Q96LD8); experiment: SENP8 protease inhibitors, SAR follow-up, biochemical, luminescence (AID 504501); type: functional
T4 sequence (Q96LD8 whole entry): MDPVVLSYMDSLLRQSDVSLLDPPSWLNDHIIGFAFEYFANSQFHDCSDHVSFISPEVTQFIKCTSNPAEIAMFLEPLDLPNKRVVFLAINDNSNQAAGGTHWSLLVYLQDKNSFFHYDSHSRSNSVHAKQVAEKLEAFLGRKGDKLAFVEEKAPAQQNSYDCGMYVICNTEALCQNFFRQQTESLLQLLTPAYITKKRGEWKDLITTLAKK

[6] = target: T5, Apoptotic protease-activating factor 1 (Homo sapiens, UniProt O14727); type: functional
T5 sequence (O14727 whole entry): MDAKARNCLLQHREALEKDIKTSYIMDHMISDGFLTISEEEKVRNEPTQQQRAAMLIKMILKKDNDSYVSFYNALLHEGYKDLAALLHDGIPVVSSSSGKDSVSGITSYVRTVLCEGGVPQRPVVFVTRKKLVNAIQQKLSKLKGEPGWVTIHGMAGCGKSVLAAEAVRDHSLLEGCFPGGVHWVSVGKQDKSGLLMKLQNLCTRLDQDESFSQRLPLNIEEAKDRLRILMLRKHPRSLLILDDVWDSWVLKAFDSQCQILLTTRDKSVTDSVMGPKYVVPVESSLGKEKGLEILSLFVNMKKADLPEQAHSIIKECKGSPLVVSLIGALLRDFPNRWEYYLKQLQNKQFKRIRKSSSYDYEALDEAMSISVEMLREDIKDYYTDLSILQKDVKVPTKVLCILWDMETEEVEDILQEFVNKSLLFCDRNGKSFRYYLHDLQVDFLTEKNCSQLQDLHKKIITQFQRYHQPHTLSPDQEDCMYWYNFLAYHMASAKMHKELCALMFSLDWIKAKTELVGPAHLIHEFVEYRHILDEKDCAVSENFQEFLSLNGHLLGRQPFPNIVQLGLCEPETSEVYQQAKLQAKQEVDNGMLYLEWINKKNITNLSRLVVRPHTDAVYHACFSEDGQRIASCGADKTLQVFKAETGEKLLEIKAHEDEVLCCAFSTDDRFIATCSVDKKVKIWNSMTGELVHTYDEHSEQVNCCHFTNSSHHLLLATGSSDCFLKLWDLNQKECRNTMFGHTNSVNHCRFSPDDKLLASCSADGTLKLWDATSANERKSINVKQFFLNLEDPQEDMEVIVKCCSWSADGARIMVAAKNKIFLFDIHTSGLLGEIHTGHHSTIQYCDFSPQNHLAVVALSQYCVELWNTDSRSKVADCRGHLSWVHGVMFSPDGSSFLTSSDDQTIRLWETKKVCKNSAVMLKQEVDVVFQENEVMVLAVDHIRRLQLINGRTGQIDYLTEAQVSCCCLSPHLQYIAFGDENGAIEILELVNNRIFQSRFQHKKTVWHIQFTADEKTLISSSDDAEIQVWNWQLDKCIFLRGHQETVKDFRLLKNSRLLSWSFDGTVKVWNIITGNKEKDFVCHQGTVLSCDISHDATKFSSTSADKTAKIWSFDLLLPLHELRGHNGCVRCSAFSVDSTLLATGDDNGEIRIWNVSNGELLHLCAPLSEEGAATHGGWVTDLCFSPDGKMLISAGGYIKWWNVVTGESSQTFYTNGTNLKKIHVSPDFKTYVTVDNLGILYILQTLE

[7] = target: T4, Sentrin-specific protease 8; type: functional
[8] = target: T4, Sentrin-specific protease 8; type: functional; remark: listed apart in the source
[9] = HepG2 cell cytotoxicity, dose response, cytotoxicity control, ATP luminescence, cherry-pick, set 6 (AID 1053125); type: functional, cell-based
[10] = target: T6, Low molecular weight phosphotyrosine protein phosphatase (Homo sapiens, UniProt P24666); type: functional; conditions: read-out: IC50_Mean;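 also: Dose-response confirmation assay measuring inhibition of LMPTP enzyme activity by fluorescence intensity read-out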
T6 sequence (P24666 whole entry): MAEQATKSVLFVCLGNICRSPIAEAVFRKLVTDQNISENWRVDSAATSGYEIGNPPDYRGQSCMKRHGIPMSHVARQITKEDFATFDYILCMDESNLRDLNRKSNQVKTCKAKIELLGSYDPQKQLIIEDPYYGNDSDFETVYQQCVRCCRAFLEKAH

[11] = target: Protein Wnt-3a (Mus musculus, UniProt P27467); experiment: Wnt3a-driven reporter signaling inhibition, dose response, selectivity assay for Gli-SUFU antagonist project, Wnt-LIGHT cells, luminescence (AID 651570); type: functional; conditions: read-out: IC50_Mean;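 also: Wnt-LIGHT reporter cells stimulated with conditioned medium from Wnt3a-producing cells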
Chain of Protein Wnt-3a (P27467 whole entry): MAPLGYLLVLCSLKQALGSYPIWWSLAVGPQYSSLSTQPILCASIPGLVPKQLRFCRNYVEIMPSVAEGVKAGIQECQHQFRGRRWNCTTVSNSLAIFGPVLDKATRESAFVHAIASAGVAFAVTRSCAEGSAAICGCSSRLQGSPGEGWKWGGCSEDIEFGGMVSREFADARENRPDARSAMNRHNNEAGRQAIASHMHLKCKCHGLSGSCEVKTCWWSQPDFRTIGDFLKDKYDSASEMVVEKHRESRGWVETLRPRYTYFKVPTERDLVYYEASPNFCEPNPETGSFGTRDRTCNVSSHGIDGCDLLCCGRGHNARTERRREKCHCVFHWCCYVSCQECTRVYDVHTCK

[12] = system: Streptococcus sp. 'group A'; experiment: growth inhibition of control SK(-) GAS strain, dose response, counter-screen for streptokinase expression inhibitor project, luminescence, kanamycin, BacTiterGlo, confirmation (AID 1900); type: functional, organism-based
[13] = target: DNA (cytosine-5)-methyltransferase 1 (Homo sapiens, UniProt P26358); experiment: DNMT1 methyltransferase inhibitors, confirmation, biochemical, fluorescent molecular beacon (AID 602386); type: functional
Chain of DNA (cytosine-5)-methyltransferase 1 (P26358 whole entry): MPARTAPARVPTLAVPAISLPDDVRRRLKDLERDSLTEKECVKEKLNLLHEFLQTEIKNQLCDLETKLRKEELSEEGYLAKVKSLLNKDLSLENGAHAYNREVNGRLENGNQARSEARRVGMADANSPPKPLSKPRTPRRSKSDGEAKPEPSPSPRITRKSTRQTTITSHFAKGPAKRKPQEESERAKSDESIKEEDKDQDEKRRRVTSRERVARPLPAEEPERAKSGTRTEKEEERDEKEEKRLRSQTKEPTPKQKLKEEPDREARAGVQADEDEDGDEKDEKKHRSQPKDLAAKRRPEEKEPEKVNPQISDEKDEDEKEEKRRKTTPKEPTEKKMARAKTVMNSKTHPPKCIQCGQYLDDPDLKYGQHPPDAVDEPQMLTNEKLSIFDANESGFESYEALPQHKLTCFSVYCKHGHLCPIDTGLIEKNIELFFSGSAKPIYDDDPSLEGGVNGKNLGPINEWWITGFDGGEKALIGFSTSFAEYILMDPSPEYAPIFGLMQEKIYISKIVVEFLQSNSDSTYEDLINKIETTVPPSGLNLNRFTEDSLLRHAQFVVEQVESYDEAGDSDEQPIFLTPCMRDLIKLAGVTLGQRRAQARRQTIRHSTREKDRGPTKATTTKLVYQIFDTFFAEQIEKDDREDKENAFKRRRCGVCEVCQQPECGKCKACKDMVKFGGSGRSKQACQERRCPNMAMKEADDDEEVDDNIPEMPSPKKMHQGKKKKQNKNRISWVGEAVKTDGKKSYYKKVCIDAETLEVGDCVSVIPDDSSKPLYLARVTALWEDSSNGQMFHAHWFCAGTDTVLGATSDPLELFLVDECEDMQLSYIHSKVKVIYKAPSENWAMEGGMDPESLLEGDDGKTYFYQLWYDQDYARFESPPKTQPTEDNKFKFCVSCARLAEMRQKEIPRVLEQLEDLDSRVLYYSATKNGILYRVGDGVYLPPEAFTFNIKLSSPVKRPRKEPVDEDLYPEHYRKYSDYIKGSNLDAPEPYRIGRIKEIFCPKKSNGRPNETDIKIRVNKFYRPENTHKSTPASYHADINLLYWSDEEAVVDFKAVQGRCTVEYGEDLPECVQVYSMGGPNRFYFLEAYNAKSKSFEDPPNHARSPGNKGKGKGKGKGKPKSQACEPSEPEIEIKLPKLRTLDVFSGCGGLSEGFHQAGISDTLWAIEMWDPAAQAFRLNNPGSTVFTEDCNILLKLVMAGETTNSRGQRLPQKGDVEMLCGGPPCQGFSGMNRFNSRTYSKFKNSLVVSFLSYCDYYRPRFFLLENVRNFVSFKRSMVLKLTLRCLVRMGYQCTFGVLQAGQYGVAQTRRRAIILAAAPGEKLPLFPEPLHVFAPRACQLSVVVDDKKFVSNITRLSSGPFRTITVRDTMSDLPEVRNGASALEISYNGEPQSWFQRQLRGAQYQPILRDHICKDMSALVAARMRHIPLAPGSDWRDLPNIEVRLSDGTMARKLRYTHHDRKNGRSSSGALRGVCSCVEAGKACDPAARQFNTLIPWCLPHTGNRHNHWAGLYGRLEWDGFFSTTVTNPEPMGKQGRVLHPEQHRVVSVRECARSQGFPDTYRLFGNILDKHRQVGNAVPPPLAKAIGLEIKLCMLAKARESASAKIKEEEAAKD

[14] = Luminescence Cell-Based Dose Retest to Confirm Inhibitors of Cancer Stem Cells. [Related pubchem assays (depositor defined):AID2717, AID2721]; type: functional; conditions: Homo sapiens
[15] = system: Streptococcus; experiment: Group A Streptococcus viability loss, dose response, counter-screen for streptokinase expression inhibitor project, luminescence, BacTiterGlo (AID 1915); type: functional, organism-based;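 also: potency for reduction of bacterial viability or growth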

Chain of Ras and Rab interactor 1/Tyrosine-protein kinase ABL1 (P00519 whole entry): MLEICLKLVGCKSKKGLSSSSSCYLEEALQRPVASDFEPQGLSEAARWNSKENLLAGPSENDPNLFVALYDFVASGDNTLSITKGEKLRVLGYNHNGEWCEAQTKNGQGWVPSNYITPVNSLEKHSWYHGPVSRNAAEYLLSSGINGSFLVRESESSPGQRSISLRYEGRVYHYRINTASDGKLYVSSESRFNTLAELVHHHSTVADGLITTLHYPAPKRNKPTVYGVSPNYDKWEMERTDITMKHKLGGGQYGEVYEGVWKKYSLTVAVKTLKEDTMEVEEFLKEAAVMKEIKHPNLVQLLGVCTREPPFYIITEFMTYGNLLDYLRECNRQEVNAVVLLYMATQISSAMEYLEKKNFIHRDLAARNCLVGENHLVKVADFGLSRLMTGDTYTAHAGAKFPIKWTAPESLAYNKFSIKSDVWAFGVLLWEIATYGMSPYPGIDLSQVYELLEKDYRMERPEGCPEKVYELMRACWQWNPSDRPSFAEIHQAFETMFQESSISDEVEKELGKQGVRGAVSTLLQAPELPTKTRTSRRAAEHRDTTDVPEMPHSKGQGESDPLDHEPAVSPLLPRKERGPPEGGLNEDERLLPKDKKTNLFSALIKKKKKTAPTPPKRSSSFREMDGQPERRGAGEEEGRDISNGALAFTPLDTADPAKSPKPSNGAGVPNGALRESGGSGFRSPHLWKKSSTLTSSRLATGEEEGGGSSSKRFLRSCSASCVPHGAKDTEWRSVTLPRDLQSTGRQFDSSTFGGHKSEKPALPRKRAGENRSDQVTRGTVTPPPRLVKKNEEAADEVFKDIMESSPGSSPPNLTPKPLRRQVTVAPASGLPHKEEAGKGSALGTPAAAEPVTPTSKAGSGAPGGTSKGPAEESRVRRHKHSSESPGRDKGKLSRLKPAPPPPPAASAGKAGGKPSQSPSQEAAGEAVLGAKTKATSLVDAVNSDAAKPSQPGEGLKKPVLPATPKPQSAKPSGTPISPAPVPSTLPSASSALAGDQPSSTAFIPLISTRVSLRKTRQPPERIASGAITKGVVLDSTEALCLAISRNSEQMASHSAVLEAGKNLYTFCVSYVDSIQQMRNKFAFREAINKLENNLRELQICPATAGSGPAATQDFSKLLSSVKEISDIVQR
Chain of Ras and Rab interactor 1/Tyrosine-protein kinase ABL1 (Q13671 whole entry): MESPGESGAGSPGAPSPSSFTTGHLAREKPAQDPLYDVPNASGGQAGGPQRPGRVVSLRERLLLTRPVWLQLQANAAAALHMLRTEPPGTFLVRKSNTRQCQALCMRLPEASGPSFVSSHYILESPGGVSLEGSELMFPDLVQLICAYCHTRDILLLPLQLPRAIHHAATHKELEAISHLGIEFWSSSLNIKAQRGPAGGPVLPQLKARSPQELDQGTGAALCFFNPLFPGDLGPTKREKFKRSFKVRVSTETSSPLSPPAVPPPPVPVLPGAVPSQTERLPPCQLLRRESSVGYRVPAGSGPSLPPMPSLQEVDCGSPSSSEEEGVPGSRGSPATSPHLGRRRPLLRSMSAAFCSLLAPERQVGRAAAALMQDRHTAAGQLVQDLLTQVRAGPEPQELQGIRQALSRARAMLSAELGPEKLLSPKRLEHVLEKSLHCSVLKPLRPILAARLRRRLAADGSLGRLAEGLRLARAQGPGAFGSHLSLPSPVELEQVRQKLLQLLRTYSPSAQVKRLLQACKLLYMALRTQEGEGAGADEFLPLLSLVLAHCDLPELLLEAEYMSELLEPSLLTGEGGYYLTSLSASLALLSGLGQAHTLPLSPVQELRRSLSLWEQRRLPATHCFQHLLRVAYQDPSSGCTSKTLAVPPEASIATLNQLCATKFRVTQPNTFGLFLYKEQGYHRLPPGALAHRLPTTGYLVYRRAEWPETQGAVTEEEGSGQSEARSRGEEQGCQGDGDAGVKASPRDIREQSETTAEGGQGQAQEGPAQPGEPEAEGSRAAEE

SMILES: CSCCC(c1nnnn1C1CCCCC1)N1CCC(n2c(O)nc3ccccc32)CC1 (stereo not given)
IC50 [1]: 6.82 µM (active)

SMILES: CC1=NN(c2ccc(C(F)(F)F)cn2)C(=O)C1
IC50 [6]: 17.7 µM (active)
IC50 [7]: 15.6 µM (active)
IC50 [8]: 10.1 µM (active)

SMILES: Cc1ccc2nc3c(cc(C(=O)NCc4ccccc4)c(=N)n3CCCn3ccnc3)c(=O)n2c1
AC50 [9]: 48 µM (active)
IC50 [10]: 29.8 µM (inactive)

SMILES: COC(=O)c1nn(-c2ccccc2)c2c1C(c1ccc(OC)cc1)(C(F)(F)F)N/C(=N\c1ccc(C)cc1)O2 (stereo not given)
IC50 [2]: > 99 µM (inactive)
IC50 [3]: > 99 µM (inactive)
IC50 [4]: > 99 µM (inactive)
IC50 [5]: > 99 µM (inactive)

SMILES: CC(C)COc1ccc(-c2nn(-c3ccccc3)cc2/C=C2/SC(=S)N(CC(=O)O)C2=O)cc1
EC50 [12]: 2.85 µM (active)
IC50 [13]: 5.58 µM (active)
AC50 [14]: 2.87 µM (active)
EC50 [15]: 4.38 µM (active)

The next lines start with results.

IC50 [2]: 6.02 µM (active)
IC50 [3]: 3.21 µM (active)
IC50 [4]: 6.76 µM (active)
SMILES: Cc1ccc(N/N=C/c2c[nH]c3ccccc23)cc1
IC50 [5]: 7.41 µM (active)

IC50 [1]: 22.3 µM (inactive)
SMILES: COc1ccccc1CN1C[C@@H]2C[C@@H](c3ccc4nsnc4c3)N3CCC[C@@]23C1=O

IC50 [2]: > 99 µM (inactive)
IC50 [3]: > 99 µM (inactive)
IC50 [4]: > 99 µM (inactive)
SMILES: COc1cccc2sc(NC(=O)c3ccc(S(=O)(=O)N(C)C4CCCC4)cc3)nc12
IC50 [5]: > 99 µM (inactive)

IC50 [11]: 25.5 µM (inactive)
SMILES: COc1ccc(NC(=S)N2CCC(Cc3ccccc3)CC2)cc1

IC50 [11]: 26.3 µM (inactive)
SMILES: CCn1c(/C=C/Nc2ccccc2)[n+](CC)c2cc(Cl)ccc21
